Data as given in patent publication US5880284A, “Cyclic urea derivatives, pharmaceutical compositions containing these compounds and processes for preparing them” (Dr. Karl Thomae GmbH, priority 1992, dated 1999).
Where a name gives a salt, the structure may show the parent alone. Read-outs that look alike come from different tables or passages of the source.

Legend:
thrombocyte aggregation = test: Inhibition of collagen-induced platelet aggregation in platelet-rich plasma (Born and Cross); assay type: cell-based; details: Homo sapiens, 10 min, read-out: Inhibition of platelet aggregation EC50
Description: The thrombocyte aggregatrion is measured using the Born and Cross method (J. Physiol. 170: 397 (1964)) in platelet-rich plasma taken from health volunteers. To inhibit coagulation the blood is mixed with 3.14% sodium citrate in a ratio by volume of 1:10.
Collagen-induced agaregation
The pattern of the decrease in optical density of the platelet suspension is photometrically measured and recorded after the addition of the aggregation-triggering substance. The rate of aggregation is concluded from the angle of inclination of the density curve. The point on the curve where there is maximum light transmittance is used to calculate the optical density.
The amount of collagen used is as small as possible but sufficient to produce an irreversible reaction curve. Standard commercial collagen produced by Hormonchemie of Munich is used.
Before the addition of the collagen the plasma is incubated for 10 minutes with the substance at 37° C.
From the measurements obtained an EC50 is determined graphically, indicating a 50% change in the optical density in terms of the inhibition of aggregation.

[1] = Tolerability after intravenous administration to mice; assay type: in vivo
human thrombocytes = test: Inhibition of binding of 3H-BIBU 52 to human thrombocytes (fibrinogen-binding test); details: 3H-BIBU 52 final concentration 5 nM, plasma, 20 minutes, ambient temperature; 50% inhibition of binding
Description: Inhibition of Binding of ^3 H-BIBU 52 to Human Thrombocytes
A suspension of human thrombocytes in plasma is incubated with ^3 H-BIBU 52 [=(3S,5S)-5-[(4'-amidino-4-biphenylyl)oxymethyl]-3-[(carboxyl)methyl]-2-pyrrolidinone[^3 -^3 H-4-biphenylyl]] […] The free and bound ligand is separated by centrifuging and quantitatively determined by scintillation counting. From the measurements obtained, the inhibition of ^3 H-BIBU 52 binding by the test substance is determined.
In order to do this, donor blood is taken from an anticubital vein and anticoagulated by trisodium citrate (final concentration 13 mM). The blood is centrifuged for 10 minutes at 170×g and the supernatant platelet-rich plasma (PRP) is removed. The remaining blood is vigorously centrifuged once more in order to obtain plasma. The PRP is diluted 1:10 with autologous plasma. 750 μl are incubated with 50 μl of physiological saline solution, 100 μl of test substance solution, 50 μl of ^4 C-sucrose (3,700 Bq) and 50 μl of ^3 H-BIBU 52 (final concentration: 5 nM) at ambient temperature for 20 minutes. In order to measure non-specific binding, instead of the test substance, 5 μl of BIBU 52 are put in (final concentration: 30 μM). The samples are centrifuged for 20 seconds at 10,000×g and the supernatant is drawn off. 100 μl therof are measured in order to determine the free ligand. The pellet is dissolved in 500 μl of 0.2N NaOH, 450 μl are mixed with 2 ml of scintillator and 25 μl of 5N HCl and measured. The residual plasma remaining in the pellet is determined from the ^14 C content, the bound ligand from the ^3 H measurement. After subtracting the non-specific binding, the pellet activity is plotted against the concentration of the test substance and the concentration for a 50% inhibition of binding is determined.

thrombocytes = test: Collagen-induced aggregation of thrombocytes ex vivo after oral administration; assay type: in vivo; details: rhesus monkey, oral administration of 1 mg/kg
Description: Moreover, the compound of Example 6(14), for example, inhibits the collagen-induced aggregation of thrombocytes in the rhesus monkey ex vivo after the oral administration of 1 mg/kg for up to four hours.

[2] = collagen-induced, platelet-rich plasma, 10 minutes incubation at 37° C., 50% change in optical density

SMILES | EC50 (thrombocyte aggregation; [2]) [nM] | Deaths after intravenous administration ([1]; mouse, in vivo, iv, 30 mg/kg) | IC50 (human thrombocytes) [nM] | EC50 (thrombocyte aggregation; Platelet) [nM] | Duration of inhibition of collagen-induced aggregation of thrombocytes ex vivo (thrombocytes) | Deaths after intravenous administration ([1]; mice, 30 mg/kg intravenous, three animals)
NCC1CCc2cc(N3CCN([C@H]4CC[C@H](C(=O)O)CC4)C3=O)ccc2C1 (relative stereo) [1(44), 1-(2-aminomethyl-1,2,3,4-tetrahydro-6-naphthyl)-3-(trans-4-carboxycyclohexyl)-imidazolidin-2-one-hydrochloride] | 380 |  |  |  |  | 
Cc1nn(-c2ccc(C(=N)N)cc2)c(=O)n1-c1ccc(CC(C)C(=O)O)cc1 (centres unmarked) [1(1), 2-(4-amidinophenyl)-4-[4-(2-carboxy-1-propyl)phenyl]-5-methyl-4H-1,2,4-triazol-3-one×0.5 water] | 30 | none of the three animals tested died | 0.8 |  |  | 
N=C(N)c1ccc(-n2nc(-c3ccccc3)n(-c3ccc(CCC(=O)O)cc3)c2=O)cc1 [1(2), 2-(4-amidinophenyl)-4-[4-(2-carboxyethyl)phenyl]-5-phenyl-4H-1,2,4-triazol-3-one×2 water] | 70 |  | 1.2 |  |  | 
NC1CCCc2cc(N3CCN(c4ccc(CCC(=O)O)cc4)C3=O)ccc21 (centres unmarked) [1(3), 1-(1-amino-1,2,3,4-tetrahydronaphthalin-6-yl)-3-[4-(2-carboxyethyl)phenyl]-imidazolidin-2-one-hydrochloride] | 270 |  | 64 |  |  | 
Cc1nn(CCC2CCNCC2)c(=O)n1-c1ccc(CCC(=O)O)cc1 [1(4), 4-[4-(2-carboxyethyl)phenyl]-5-methyl-2-[2-(4-piperidinyl)ethyl]-4H-1,2,4-triazol-3-one-toluenesulphonate×water] | 500 | none of the three animals tested died | 280 |  |  | 
O=C(O)CCc1ccc(N2CCN(CCC3CCNCC3)C2=O)cc1 [1(6), 1-[4-(2-carboxyethyl)phenyl]-3-[2-(4-piperidinyl)ethyl]-imidazolidin-2-one-hydrochloride×water] | 100 | none of the three animals tested died | 18 |  |  | 
CCCC(Cc1ccc(-n2c(C)nn(CCC3CCNCC3)c2=O)cc1)C(=O)O (centres unmarked) [1(8), 4-[4-(2-carboxy-1-pentyl)phenyl]-5-methyl-2-(2-(4-piperidinyl)ethyl)-4H-1,2,4-triazol-3-one-hydrochloride] | 1200 |  | 760 |  |  | 
CCCCS(=O)(=O)NC(Cc1ccc(N2CCN(c3ccc(C(=N)N)cc3)C2=O)cc1)C(=O)O (centres unmarked) [1(21), 1-(4-amidinophenyl)-3-[4-[2-(n-butylsulfonylamino)-2-carboxy-ethyl]phenyl]-imidazolidin-2-one-hydrochloride] | 36 |  | 1 |  |  | 
Cl.O=C(O)CC[C@H]1CC[C@H](N2CCN(CCC3CCNCC3)C2=O)CC1 [1(39), 1-[trans-4-(2-carboxyethyl)cyclohexyl]-3-[2-(4-piperidinyl)ethyl]-imidazolidin-2-one-hydrochloride] | 86 | none of the three animals tested died | 25 |  |  | 
O=C1N(c2ccc(C34CCN(CC3)CC4)cc2)CCN1[C@H]1CC[C@H](C(=O)O)CC1 [1(50), 1-(trans-4-carboxycyclohexyl)-3-[4-(4-quinuclidinyl)-phenyl]-imidazolidin-2-one-hydrochloride×1.2 H2 O] |  |  | 65 | 170 |  | 
N=C(N)c1ccc(N2CCN(c3ccc(CCc4nnn[nH]4)cc3)C2=O)cc1 [2(5), 1-(4-amidinophenyl)-3-[4-[2-(5-tetrazolyl)ethyl]phenyl]-imidazolidin-2-one] | 3200 |  | 3500 |  |  | 
N=C(N)c1ccc(-n2ncn([C@H]3CC[C@H](CCC(=O)O)CC3)c2=O)cc1 [4(4), 2-(4-amidinophenyl)-4-[trans-4-(2-carboxyethyl)-cyclohexyl]-4H-1,2,4-triazol-3-one] | 30 |  | 2.9 |  |  | 
NCC1CCC(N2CCN(c3ccc(CCC(=O)O)cc3)C2=O)CC1 (centres unmarked) [4(5), 1-[4-(aminomethyl)cyclohexyl]-3-[4-(2-carboxyethyl)phenyl]-imidazolidin-2-one] | 3300 |  | 4100 |  |  | 
O=C(O)C=Cc1ccc(N2CCN(CCC3CCNCC3)C2=O)c(F)c1 [4(13), 1-[4-(2-carboxyethenyl)-2-fluoro-phenyl]-3-[2-(4-piperidinyl)ethyl]-imidazolidin-2-one×1.1 HCl×1 H2 O] | 300 |  | 250 |  |  | 
Cc1nn(-c2ccc(C(=N)N)cc2)c(=O)n1-c1cccc(CCC(=O)O)c1 [5(2), 2-(4-amidinophenyl)-4-[3-(2-carboxyethyl)phenyl]-5-methyl-4H-1,2,4-triazol-3-one] | 840 |  | 720 |  |  | 
CCOC(=O)CCc1ccc(N2CCN(CCC3CCNCC3)C2=O)cc1 [6(34), 1-[4-[2-(ethoxycarbonyl)ethyl]phenyl]-3-(2-(4-piperidinyl)ethyl]-imidazolidin-2-one-hydrochloride] | 350 |  | 21000 |  |  | 
CCOC(=O)CC[C@H]1CC[C@H](N2CCN(CCC3CCNCC3)C2=O)CC1 [6(35), 1-[trans-4-[2-(ethoxycarbonyl)ethyl]cyclohexyl]-3-[2-(4-piperidinyl)ethyl]-imidazolidin-2-one-hydrochloride] | 630 |  | 5700 |  |  | 
CCOC(=O)CCc1ccc(N2CCN(CCC34CCN(CC3)CC4)C2=O)cc1 [6(37), 1-[2-(4-quinuclidinyl)ethyl]-3-[4-[2-(ethoxycarbonyl)-ethyl]phenyl]-imidazolidin-2-one-hydro-chloride] |  |  | 7100 | 380 |  | 
CCOC(=O)[C@H]1CC[C@H](N2CCN(c3ccc(C4CCNCC4)cc3)C2=O)CC1 [6(40), 1-[trans-4-(ethoxycarbonyl)cyclohexyl]-3-[4-(4-piperidinyl)phenyl]-imidazolidin-2-one-hydrochloride] | 240 |  | 2500 |  |  | 
O=C1N(C2CCC(C3CCNCC3)CC2)CCN1[C@H]1CC[C@H](C(=O)O)CC1 (some centres unmarked) [18(2)] | 110 |  |  |  |  | 
N#CC1(c2ccc(N3CCN(CCCCC(=O)O)C3=O)cc2)CCNCC1 [24(1), 1-(4-carboxybutyl)-3-[4-(4-cyano-4-piperidinyl)-phenyl]-imidazolidin-2-one] | 940 |  | 150 |  |  | 
CC1(c2ccc(N3CCN([C@H]4CC[C@H](C(=O)O)CC4)C3=O)cc2)CCNCC1 [24(2), 1-(trans-4-carboxycyclohexyl)-3-[4-(4-methyl-4-piperidinyl)phenyl]-imidazolidin-2-one] | 71 |  |  |  |  | 
O=C(O)CO[C@H]1CC[C@H](N2CCN(CCC3CCNCC3)C2=O)CC1 [30(4), 1-[trans-4-[(carboxymethyl)oxy]cyclohexyl]-3-[2-(4-piperidinyl)ethyl]-imidazolidin-2-one-hydrochloride×0.3 H2 O] | 490 |  | 200 |  |  | 
Cc1nn(-c2ccc(C(=N)N)cc2)c(=O)n1[C@H]1CC[C@@H](CCC(=O)O)CC1 [Example 4, 2-(4-Amidinophenyl)-4-[cis-4-(2-carboxyethyl)cyclo-hexyl]-5-methyl-4H-1,2,4-triazol-3-one] | 130 |  |  |  |  | 
Cc1nn(-c2ccc(C(=N)N)cc2)c(=O)n1-c1ccc(CCC(=O)OC2CCCCC2)cc1.Cl [Example 6(14), 2-(4-amidinophenyl)-4-[4-[2-(cyclohexyloxycarbonyl)-ethyl]phenyl]-5-methyl-4H-1,2,4-triazol-3-one-hydrochloride] | 40 |  | 250 |  | up to four | 
CN1CCC(CCN2CCN(c3ccc(CCC(=O)O)cc3)C2=O)CC1 [Example 15] | 4300 |  | 12000 |  |  | 
Cl.O=C1N(c2ccc(C3CCNCC3)cc2)CCN1[C@H]1CC[C@H](C(=O)O)CC1 [Example 17, 1-(trans-4-Carboxycyclohexyl)-3-[4-(4-piperidinyl)phenyl]-imidazolidin-2-one-hydrochloride] | 43 | none of the three animals tested died | 16 |  |  | 
Cl.O=C(O)CCc1ccc(N2CCN(CCC34CCN(CC3)CC4)C2=O)cc1 [Example 26, 1-[4-(2-Carboxyethyl)phenyl]-3-[2-(4-quinuclidinyl)ethyl]-imidazolidin-2-one-hydrochloride] |  |  | 26 | 84 |  | none of the three animals tested died
